Source: publication PMC11336009 (GeroScience, 2024)

Experiments:
[1] = Body weight of 6-OHDA lesioned rats under chronic gliptin treatment; assay type: in vivo, rat; conditions: 12 mg/kg daily from day 7 after lesioning, one day before and 28 days after lesioning
Protocol: Gliptin treatment was initiated either prior to or after 6-OHDA lesioning (early and delayed treatment, respectively) as follows. […] Specifically for drug admixture into diet, drug was solubilized in 100% ETOH that was then added to the 16.2 g of food chow. Thereafter, the ETOH was evaporated off. […] Animals were weighed twice weekly and the amount of drug added to the chow was modified accordingly to maintain the daily required dose. […] Specifically, the 10 mg/kg oral daily drug dose in our rat studies is equivalent to the routine human daily oral dose (100 mg in a 65 kg human) of these gliptins used in T2DM, and the 30 mg/kg rat dose is equivalent to a threefold higher dose that is well-tolerated in humans.

[2] = test system: 6-OHDA unilateral medial forebrain bundle lesioned rat; assay: Dopamine measurements by HPLC in striatum and SNc of 6-OHDA lesioned rats; assay type: in vivo; conditions: delayed treatment, low dose 10 mg/kg daily p.o. from day 7
Protocol: Gliptin treatment was initiated either prior to or after 6-OHDA lesioning (early and delayed treatment, respectively) as follows. […] An estimated dose for a 250-g rat under this treatment was 10 mg/kg/day. […] An estimated, clinically relevant, dose for a 250 g rat under this treatment was thus 30 mg/kg/day. Specifically for drug admixture into diet, drug was solubilized in 100% ETOH that was then added to the 16.2 g of food chow. Thereafter, the ETOH was evaporated off. […] Animals were weighed twice weekly and the amount of drug added to the chow was modified accordingly to maintain the daily required dose.
Brain samples were collected at 45 days after 6-OHDA lesioning. Striatal and SNc tissues were weighed and stored at − 80 °C until extraction. The tissues obtained from each animal were homogenized in 0.1 M perchloric acid and centrifuged at 13,000 g for 15 min. DA levels were measured by HPLC with electrochemical detection [47]. The analytical column was a Symmetry C18 3.5 µm (4.6 × 150.0 mm) from Waters (Milford, MA). The mobile phase consisted of 0.01 M sodium dihydrogen phosphate, 0.01 M citric acid, 2 mM sodium EDTA, 1 mM sodium octylsulfate, 10% methanol, pH 3.5 and was used at flow rate of 0.9 ml/min and a temperature of 25 °C. […] DA content was calculated as nmole/g of tissue weight.

GLP-1 and GIP = assay: Active GLP-1 and GIP measurement in rat plasma and CSF (ELISA); assay type: in vivo; conditions: 30 mg/kg daily p.o. day 7 to 45, day 45
Protocol: Plasma was obtained from whole blood samples at the time of euthanasia (centrifugation 10,000xG 60 s at 4 °C), and CSF was obtained from the cisterna magna. Samples were evaluated by ELISA using kits from IBL (Immuno-Biological Laboratories, Inc.) or from Millipore, following their protocols.

[3] = test system: 6-OHDA unilateral medial forebrain bundle lesioned rat; assay: Methamphetamine-induced rotation in unilateral 6-OHDA lesioned rats; assay type: in vivo; conditions: for Meth-induced ipsilateral rotation vs vehicle: early treatment 10 mg/kg daily p.o. from 7 days before lesioning, meth 2.5 mg/kg s.c. on days 20 and 30
[4] = test system: 6-OHDA unilateral medial forebrain bundle lesioned rat; assay: BrdU immunoreactivity (neurogenesis marker) in SVZ and striatum of 6-OHDA lesioned rats; assay type: in vivo; conditions: delayed treatment 30 mg/kg daily p.o.; BrdU 50 mg/kg i.p. day 8 to 20; day 21
Protocol: Gliptin treatment was initiated either prior to or after 6-OHDA lesioning (early and delayed treatment, respectively) as follows. […]. An estimated dose for a 250-g rat under this treatment was 10 mg/kg/day. […]. An estimated, clinically relevant, dose for a 250 g rat under this treatment was thus 30 mg/kg/day. Specifically for drug admixture into diet, drug was solubilized in 100% ETOH that was then added to the 16.2 g of food chow. Thereafter, the ETOH was evaporated off. […] Animals were weighed twice weekly and the amount of drug added to the chow was modified accordingly to maintain the daily required dose. […]. […] Specifically, the 10 mg/kg oral daily drug dose in our rat studies is equivalent to the routine human daily oral dose (100 mg in a 65 kg human) of these gliptins used in T2DM, and the 30 mg/kg rat dose is equivalent to a threefold higher dose that is well-tolerated in humans.
Following the exact same protocol described in Yin et al., 2012 [34] and Harvey et al. 2004 [36], anesthetized rats were subjected to a 6-OHDA unilateral medial forebrain bundle lesion. Briefly, 6-OHDA (2.27 µg/µL × 5 µL in 0.9% NaCl containing 0.2 mg/ml ascorbic acid) was unilaterally injected into the medial forebrain bundle (-4.4 mm AP, 1.2 mm ML relative to bregma and 8.4 mm below skull) over 4 min through a syringe pump (Micro 4, WPI, Sarasota, FL), as approved under National Health Research Institutes, Taiwan, Protocol # 102,068-A; 102,102-A. Following this procedure, all animals were monitored daily for adverse signs of health for 1 week (in line with the approved protocols).
BrdU (Sigma-Aldrich, St. Louis, MO) was injected parenterally (i.p.) from day 8 to day 20 after 6-OHDA lesioning at the dose of 50 mg/kg/day as a marker of neurogenesis. Animals were euthanized for immunostaining on day 21.
BrdU and TH localization was determined by immunohistochemistry. Serial sections of the entire brain were cut at 30 μm thickness by cryostat. One series from every sixth section was stained for TH. To control for staining variability, specimens from all experimental groups were included in every batch and reacted together in a net well tray under the same conditions. Sections were rinsed in 0.1 M phosphate buffer (PB), blocked with 4% bovine serum albumin (BSA) and 0.3% Triton x-100 in 0.1 M PB. […]
TH immunoreactivity and BrdU cell number in striatum were averaged from 3 brain sections with visible anterior commissure in each animal. TH immunoreactivity in SNc was measured every 6th Sect. […] Nigral volume was analyzed using Cavalieri's method.

[5] = test system: TNF-α, IL-6, Iba-1 and GFAP; assay: Neuroinflammatory measures in brain (TNF-α, IL-6 ELISA; Iba-1, GFAP Western blot); assay type: in vivo, rat; conditions: 30 mg/kg daily p.o. day 7 to 45; day 45
Protocol: To quantify rat brain cytokine levels, brain tissues were homogenized in TPER (Tissue Protein Extraction Reagent) (ThermoFisher Scientific) using a Biomasher Homogenizer. Inhibitors of phosphatase and protease were added into the TPER to prevent protein degradation. Tissues were then sonicated for 10 pulses and centrifuged at 10,000 g for 10 min at 4 °C. The supernatant was used to measure brain cytokine levels using rat TNF-α ELISA kits from e-Bioscience (San Diego, CA, USA) and rat IL-6 ELISA kits from Biolegend (San Diego, CA, USA). The final results were normalized to protein content, as measured by BCA (bicinchoninic acid) assay. Brain tissue Iba-1 and GFAP levels were quantified by Western blot (Iba-1 and GFAP antibodies Santa Cruz Biotechnology, Inc.) and used in 1:100 dilution).

P-glycoprotein = conditions: at the level of the kidney; cited from earlier work
high-fat-fed mice = conditions: cited from earlier work
[6] = delayed treatment 30 mg/kg daily p.o. from day 7 to 45, rotation on days 20, 30 and 40

In the case of O=C([C@@H]1C[C@H](N2CCN(c3ncccn3)CC2)CN1)N1CCC(F)(F)C1 [PF-00734,200, Gosogliptin], the “Body weight in 6-OHDA lesioned rats” value [1] is reported as “did not alter body weight”, the “DA levels in SNc or striatum vs vehicle” value ([2]; 10 mg/kg) is reported as “not significantly altered” and the “DA levels in SNc or striatum vs vehicle” value ([2]; listed as PF‐00734,200, 10 mg/kg) is reported as “did not alter DA level”. The “CSF GIP level vs vehicle” value (GLP-1 and GIP; CSF) was “elevated”, the “CSF GLP-1 level vs vehicle” value (GLP-1 and GIP; CSF) was “elevated” and the “Plasma GIP level vs vehicle” value (GLP-1 and GIP) was “elevated”. For the same compound, the “Plasma GLP-1 level vs vehicle” value (GLP-1 and GIP) was “elevated”, the “Meth-induced rotation vs vehicle” value [3, 6] was “significantly attenuated” and the “Meth-induced rotational behavior vs vehicle” value ([3]; delayed treatment, low dose 10 mg/kg daily p.o. from day 7) was “did not alter rotational behavior”. The “Meth-induced ipsilateral rotation vs vehicle” value [3] was “significantly reduced”, the “Meth-induced rotation vs vehicle” value ([3]; i.c.v. 15.4 nmole 10 min prior to 6-OHDA lesioning, evaluated on day 30) was “no different from similarly vehicle-treated animals” and the “BrdU labeling in the SVZ vs vehicle” value [4] was “did not alter”. The “BrdU labeling in the lesioned striatum vs vehicle” value [4] was “significantly increased”, the “GFAP level on the lesioned side of brain (striatum) vs vehicle” value [5] was “reduced levels” and the “IL-6 level on the lesioned side of brain (striatum) vs vehicle” value [5] was “reduced levels”. The “Iba1 level on the lesioned side of brain (striatum) vs vehicle” value [5] was “reduced levels” and the “TNF-α level on the lesioned side of brain (striatum) vs vehicle” value [5] was “reduced levels”.

For N[C@@H](CC(=O)N1CCn2c(nnc2C(F)(F)F)C1)Cc1cc(F)c(F)cc1F [Sitagliptin], the “Body weight in 6-OHDA lesioned rats” value [1] is listed as “did not alter body weight”, the “Substrate for the multi-drug resistance transporter P-glycoprotein” value (P-glycoprotein) is listed as “substrate” and the “CSF GIP level vs vehicle” value (GLP-1 and GIP; CSF) is listed as “elevated”. For the same compound, the “Plasma GIP level vs vehicle” value (GLP-1 and GIP) was “elevated”, the “Plasma GLP-1 level vs vehicle” value (GLP-1 and GIP) was “elevated” and the “Meth-induced rotation vs vehicle” value [3, 6] was “significantly attenuated”. For the same compound, the “Meth-induced ipsilateral rotation vs vehicle” value [3] was “small but significant difference”, the “BrdU labeling in the SVZ vs vehicle” value [4] was “did not alter” and the “BrdU labeling in the lesioned striatum vs vehicle” value [4] was “significantly increased”. For the same compound, the Hippocampal neurogenesis (high-fat-fed mice) was “augmented hippocampal neurogenesis”, the “GFAP level on the lesioned side of brain (striatum) vs vehicle” value [5] was “reduced levels” and the “IL-6 level on the lesioned side of brain (striatum) vs vehicle” value [5] was “reduced levels”. The “Iba1 level on the lesioned side of brain (striatum) vs vehicle” value [5] was “reduced levels” and the “TNF-α level on the lesioned side of brain (striatum) vs vehicle” value [5] was “reduced levels”.
